Experimental data from patent US6355799B1, “Substituted benzene compounds, process for their preparation, and herbicidal and defoliant compositions containing them” (ISK Americas Incorporated, priority 1997, dated 2002).

Experiments:
Format in all cases: in vivo
[1] = test system: redroot pigweed (Amaranthus retroflexus, AMARE); assay: Pre-emerge test, greenhouse herbicide activity screening; details: pre-emerge, 14 days after application, scale 0-100
Outline: (§1)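 Sandy loam pots; pre-emerge: sown 1 d pre-spray, surface-watered after, then bottom-watered. Post-emerge: sown 8–21 d before, 2–3 leaf stage, + 0.25% v/v NIS, bottom-watered. Acetone, 187 l/ha track spray, 15–1000 g ai/ha. 0–100 injury score, day 14.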

[2] = test system: barnyardgrass (Echinochloa crus-galli, ECHCG); assay: as above; details: pre-emerge, 14 days after application, scale 0-100
Outline: (§2)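 Visual ratings on a 0-100 scale (0 no damage, 100 all plants dead) were taken at 14 days after treatment. Rates of 15-1000 g ai/ha in acetone, 187 l/ha, were sprayed onto soil one day after planting (pre-emerge) or onto 2-3 leaf plants with 0.25% v/v surfactant (post-emerge).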

[3] = test system: green foxtail (Setaria viridis, SETVI); assay: as above; details: pre-emerge, 14 days after application, scale 0-100
Outline: as §2

[4] = test system: ivyleaf morningglory (Ipomoea hederacea, IPOHE); assay: as above; details: pre-emerge, 14 days after application, scale 0-100
Outline: as §2

[5] = test system: johnsongrass (Sorghum halepense, SORHA); assay: as above; details: pre-emerge, 14 days after application, scale 0-100
Outline: as §2

[6] = test system: lambsquarters (Chenopodium album, CHEAL); assay: as above; details: pre-emerge, 14 days after application, scale 0-100
Outline: as §2

[7] = test system: large crabgrass (Digitaria sanguinalis, DIGSA); assay: as above; details: pre-emerge, 14 days after application, scale 0-100
Outline: as §2

[8] = test system: sicklepod (Cassia obtusifolia, CASOB); assay: as above; details: pre-emerge, 14 days after application, scale 0-100
Outline: as §2

[9] = test system: velvetleaf (Abutilon theophrasti, ABUTH); assay: as above; details: pre-emerge, 14 days after application, scale 0-100
Outline: as §2

[10] = test system: field corn (Zea mays L., var. Dekalb 535, CORN); assay: Pre-emerge test, crop safety; details: pre-emerge, 14 days after application, scale 0-100
Outline: as §1

[11] = test system: upland rice (Oryza sp., var. Tebonnet, RICE); assay: Pre-emerge test, crop safety; details: pre-emerge, 14 days after application, scale 0-100
Outline: as §1

[12] = test system: barnyardgrass (Echinochloa crus-galli, ECHCG); assay: Post-emerge test, greenhouse herbicide activity screening; details: post-emerge, 14 days after application, rating scale 0-100
Outline: (§3)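 Herbicidal damage is scored 0 (none) to 100 (complete plant death) two weeks after a simulated field spray. Rates span 15–1000 g ai/ha, delivered in acetone at 187 l/ha. For post-emergence treatments, plants have 2–3 leaves and the spray carries 0.25% v/v non-ionic surfactant.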

[13] = test system: common ragweed (Ambrosia artemisizfolia L., AMBEL); assay: as above; details: post-emerge, 14 days after application, rating scale 0-100
Outline: as §3

[14] = test system: green foxtail (Setaria viridis, SETVI); assay: as above; details: post-emerge, 14 days after application, rating scale 0-100
Outline: as §3

[15] = test system: ivyleaf morningglory (Ipomoea hederacea, IPOHE); assay: as above; details: post-emerge, 14 days after application, rating scale 0-100
Outline: as §3

[16] = test system: johnsongrass (Sorghum halepense, SORHA); assay: as above; details: post-emerge, 14 days after application, rating scale 0-100
Outline: as §3

[17] = test system: lambsquarters (Chenopodium album, CHEAL); assay: as above; details: post-emerge, 14 days after application, rating scale 0-100
Outline: as §3

[18] = test system: large crabgrass (Digitaria sanguinalis, DIGSA); assay: as above; details: post-emerge, 14 days after application, rating scale 0-100
Outline: as §3

[19] = test system: redroot pigweed (Amaranthus retroflexus, AMARE); assay: as above; details: post-emerge, 14 days after application, rating scale 0-100
Outline: as §3

[20] = test system: sicklepod (Cassia obtusifolia, CASOB); assay: as above; details: post-emerge, 14 days after application, rating scale 0-100
Outline: as §3

[21] = test system: velvetleaf (Abutilon theophrasti, ABUTH); assay: as above; details: post-emerge, 14 days after application, rating scale 0-100
Outline: as §3

[22] = test system: field corn (Zea mays L., var. Dekalb 535, CORN); assay: Post-emerge test, crop safety; details: post-emerge, 14 days after application, rating scale 0-100
Outline: as §2

[23] = test system: upland rice (Oryza sp., var. Tebonnet, RICE); assay: Post-emerge test, crop safety; details: post-emerge, 14 days after application, rating scale 0-100
Outline: as §2

COc1c(Cl)cc(F)c(-n2c(=O)cc(C(F)(F)F)n(C)c2=O)c1NC(=O)c1ccc2cccc(F)c2c1 [2-161]
70: RICE phytotoxicity rating (crop damage) ([23]; 250 g ai/ha)
30: phytotoxicity rating SORHA ([5]; 250 g ai/ha) | AMBEL phytotoxicity rating ([13]; 63 g ai/ha) | SORHA phytotoxicity rating ([16]; 250 g ai/ha)
100: phytotoxicity rating AMARE ([1]; 63 g ai/ha) | phytotoxicity rating AMARE ([1]; 250 g ai/ha) | phytotoxicity rating SETVI ([3]; 63 g ai/ha) | phytotoxicity rating SETVI ([3]; 250 g ai/ha) | phytotoxicity rating CHEAL ([6]; 63 g ai/ha) | phytotoxicity rating CHEAL ([6]; 250 g ai/ha) | phytotoxicity rating DIGSA ([7]; 250 g ai/ha) | phytotoxicity rating ABUTH ([9]; 63 g ai/ha) | phytotoxicity rating ABUTH ([9]; 250 g ai/ha) | AMBEL phytotoxicity rating ([13]; 250 g ai/ha) | IPOHE phytotoxicity rating ([15]; 63 g ai/ha) | IPOHE phytotoxicity rating ([15]; 250 g ai/ha) | CHEAL phytotoxicity rating ([17]; 63 g ai/ha) | CHEAL phytotoxicity rating ([17]; 250 g ai/ha) | AMARE phytotoxicity rating ([19]; 63 g ai/ha) | AMARE phytotoxicity rating ([19]; 250 g ai/ha) | CASOB phytotoxicity rating ([20]; 63 g ai/ha) | CASOB phytotoxicity rating ([20]; 250 g ai/ha) | ABUTH phytotoxicity rating ([21]; 63 g ai/ha) | ABUTH phytotoxicity rating ([21]; 250 g ai/ha)
40: phytotoxicity rating RICE (crop damage) ([11]; 250 g ai/ha)
60: ECHCG phytotoxicity rating ([12]; 250 g ai/ha)
99: phytotoxicity rating ECHCG ([2]; 250 g ai/ha)
0: phytotoxicity rating SORHA ([5]; 63 g ai/ha) | phytotoxicity rating CASOB ([8]; 63 g ai/ha) | phytotoxicity rating CORN (crop damage) ([10]; 63 g ai/ha) | phytotoxicity rating CORN (crop damage) ([10]; 250 g ai/ha) | phytotoxicity rating RICE (crop damage) ([11]; 63 g ai/ha) | SETVI phytotoxicity rating ([14]; 63 g ai/ha) | SORHA phytotoxicity rating ([16]; 63 g ai/ha) | DIGSA phytotoxicity rating ([18]; 63 g ai/ha) | CORN phytotoxicity rating (crop damage) ([22]; 63 g ai/ha)
20: phytotoxicity rating IPOHE ([4]; 63 g ai/ha) | ECHCG phytotoxicity rating ([12]; 63 g ai/ha) | SETVI phytotoxicity rating ([14]; 250 g ai/ha) | CORN phytotoxicity rating (crop damage) ([22]; 250 g ai/ha) | RICE phytotoxicity rating (crop damage) ([23]; 63 g ai/ha)
90: phytotoxicity rating ECHCG ([2]; 63 g ai/ha) | phytotoxicity rating IPOHE ([4]; 250 g ai/ha)
50: phytotoxicity rating CASOB ([8]; 250 g ai/ha) | DIGSA phytotoxicity rating ([18]; 250 g ai/ha)
95: phytotoxicity rating DIGSA ([7]; 63 g ai/ha)
